What was measured:
[1] = test system: ovarian tumor cells (tumor N015) and abdominal carcinoma from patients; test: Patient tumor cell culture, comparison with cancer drugs; format: cell-based, human
Text: The initial non-peptide Src inhibitors have also shown very encouraging results in four different series of cell culture assays. 1) In the NIH 60-tumor cell panel assay, broad activity (as one would expect for a Src inhibitor) was seen against the tumor cell lines, including the prostate lines. […] 3) The Src inhibitors were compared to the cancer drugs etoposide, taxol, doxorubicin, and cisplatin in ovarian tumors from three different patients and an abdominal carcinoma from another patient. […] 5) Two of the Src inhibitors were also tested for inhibition of ts v-Src stimulated LA25 cell growth. […] 6) Two of the Src inhibitors were also tested for inhibition of normal rat kidney cell growth.

[2] = test system: human lung cancer cell line H460; test: Inhibition of growth of human lung cancer cell line H460; format: cell-based; conditions: NCI-H460, 72 hours, total protein/well
Text: The results are in Table 2, below.

[3] = biological target: full length human purified recombinant pp60^c-src (Homo sapiens, UniProt P12931); test: Inhibition of isolated Src (Lai et al. 1998 assay, intracellular-mimetic conditions); format: biochemical; conditions: column head: Src at 100 μM; read-out: Src IC50
Method: Subsequent to synthesis, several of the above compounds were tested for inhibition of the growth of human lung cancer cell line H460 and inhibition of isolated Src.

[4] = mouse, in vivo, ip
Method: These compounds were administered to SCID mice by intraperitoneal administration in tween80:EtOH.

p56 lck = p56 lck (Homo sapiens, UniProt P06239); conditions: analyzed with the tyrosine kinase p56^lck; cited from earlier work
p56 lck, sequence (P06239 whole entry, species assumed): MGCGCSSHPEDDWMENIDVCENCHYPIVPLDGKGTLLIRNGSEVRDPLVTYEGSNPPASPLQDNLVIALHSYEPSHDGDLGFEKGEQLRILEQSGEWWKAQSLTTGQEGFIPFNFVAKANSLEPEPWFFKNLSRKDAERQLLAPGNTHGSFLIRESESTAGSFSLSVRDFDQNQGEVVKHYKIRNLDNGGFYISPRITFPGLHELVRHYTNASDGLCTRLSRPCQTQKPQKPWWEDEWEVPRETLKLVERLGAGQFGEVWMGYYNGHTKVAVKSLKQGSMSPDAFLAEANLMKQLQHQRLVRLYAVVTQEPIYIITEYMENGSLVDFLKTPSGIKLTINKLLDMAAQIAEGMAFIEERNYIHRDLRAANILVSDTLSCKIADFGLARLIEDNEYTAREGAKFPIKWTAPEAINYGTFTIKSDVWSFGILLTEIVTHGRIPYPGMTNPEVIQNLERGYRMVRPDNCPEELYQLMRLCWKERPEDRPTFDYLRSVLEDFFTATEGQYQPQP

full length human purified recombinant pp60^c-src, sequence (P12931 whole entry): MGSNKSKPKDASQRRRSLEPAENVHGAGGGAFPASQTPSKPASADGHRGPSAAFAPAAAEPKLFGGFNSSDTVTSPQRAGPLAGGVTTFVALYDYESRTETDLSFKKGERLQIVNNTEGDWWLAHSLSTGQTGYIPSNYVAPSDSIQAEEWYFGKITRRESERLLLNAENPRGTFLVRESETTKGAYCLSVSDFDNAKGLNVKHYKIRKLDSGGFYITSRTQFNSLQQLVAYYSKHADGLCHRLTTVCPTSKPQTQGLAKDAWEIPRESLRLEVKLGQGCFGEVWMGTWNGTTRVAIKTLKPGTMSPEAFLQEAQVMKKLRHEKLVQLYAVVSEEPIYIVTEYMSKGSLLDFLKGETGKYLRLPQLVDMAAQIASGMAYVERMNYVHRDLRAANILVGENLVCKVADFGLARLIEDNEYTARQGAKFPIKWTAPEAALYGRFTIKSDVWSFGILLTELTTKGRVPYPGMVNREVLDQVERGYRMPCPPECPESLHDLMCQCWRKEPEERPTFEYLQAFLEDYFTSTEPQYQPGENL

CC(=O)O[C@H]1C(=O)[C@@]2(C)[C@H]([C@H](OC(=O)c3ccccc3)[C@]3(O)C[C@H](OC(=O)[C@H](O)[C@@H](NC(=O)c4ccccc4)c4ccccc4)C(C)=C1C3(C)C)[C@]1(OC(C)=O)CO[C@@H]1C[C@@H]2O [taxol]
efficacy relative to other cancer drugs in tumor cell culture [1]: more effective than etoposide and cisplatin

O=C(NCc1cccc(O)c1)c1cc2cc(F)ccc2[nH]1 [Compound 1a]
IC50 [2]: 35 ± 0.59 µM | IC50 [3]: 40 µM | toxicity in mice (weight loss), MTD study [4]: less toxic in mice than compound 2k from Example 4

COc1cccc2c1C(=O)c1c(O)c3c(c(O)c1C2=O)C[C@@](O)(C(=O)CO)C[C@@H]3O[C@H]1C[C@H](N)[C@H](O)[C@H](C)O1 [doxorubicin]
efficacy relative to other cancer drugs in tumor cell culture [1]: more effective than etoposide and cisplatin

Cc1cc(O)c2c(c1)C(=O)c1cc(O)cc(O)c1C2=O [Emodin]
competition with ATP (p56 lck): ATP-competitive

From patent US7427608B2, “Protection against and treatment of hearing loss” (The Research Foundation of State University of New York, priority 2001, dated 2008)
